Where “and” joins values, the source holds several entries; their conditions need not be identical. Equal values may be shown once.
Experiments:
[1] = tested on: urine osmolarity in anesthetized rabbits; test: Urine osmolarity / urine output in anesthetized rabbits; format: in vivo
Method: An aqueous buffer solution of vasopressin (40 IU/ml) is prepared in citrate-phosphate buffer at pH 5.0. Vasopressin is an anti-diuretic pharmaceutical, which is used by patients which have an excessive urine output. Vasopressin caused a reduction of urine output and an increase in ion content, such as sodium ion content. Ion content in the urine is determined by using osmolarity measurement. An aliquot of 3.5 ml of this vasopressin solution is filled into the refillable dosage unit having a microporous membrane as the drug-releasing surface. The dosage unit is then assembled as a part of the pharmaceutical reservoir electrode of the iontotherapeutic device and membrane surface thereof is applied to the abdominal skin of 2 groups of anesthetized rabbits. Blood samples are withdrawn and urine samples are collected at regular time intervals and urine osmolarity is measured by osmometer. The increases in osmolarity from the basal level are the pharmacodynamic responses to the vasopressin transdermally absorbed.

[2] = In vitro skin permeation of vasopressin, Valia-Chien cell, H^3-vasopressin scintillation counting; format: in vitro ADME, hairless rat; conditions: pH 7.4
[3] = as above; format: in vitro ADME, hairless rat; conditions: for Enhancement factor: vs passive diffusion (1.32 ng/cm^2 /hr)
Method: (§1) An aqueous buffer solution of vasopressin (50 mcg/ml containing 1.7 mcCi/ml H^3 -vasopressin) is prepared in citrate-phosphate buffer at pH 5.0. An aliquot of 3.5 ml of this vasopressin solution is filled into the refillable dosage unit having a microporous membrane as the drug-releasingsurface. The dosage unit is then assembled as a part of the pharmaceutical reservoir electrode of the iontotherapeutic device and membrane surface thereof is applied to the stratum corneum side of hairless rat skin mounted in the Valia-Chien skin permeation cell at 37° C. Samples are withdrawn at regular intervals and radioactivity is measured by scintillation counter to determine the amount of vasopressin which has been transdermally absorbed.
as §1, with “aqueous buffered” for “aqueous buffer”, “pH 7.4 with varying ionic strengths.” for “pH 5.0.”, “the drug-releasing surface.” for “the drug-releasingsurface.”, “regular time” for “regular”
as §1, with “aqueous buffered” for “aqueous buffer”, “pH 5.0 at ionic strength of 0.064.” for “pH 5.0.”, “the drug-releasing surface.” for “the drug-releasingsurface.”, “regular time” for “regular”

[4] = TPIS 0.3 mA, 16 KHz, on/off 1/1, 60 min, pH 5.0, ionic strength 0.064

NC(=O)CC[C@@H]1NC(=O)[C@H](Cc2ccccc2)NC(=O)[C@H](Cc2ccc(O)cc2)NC(=O)[C@@H](N)CSSC[C@@H](C(=O)N2CCC[C@H]2C(=O)N[C@@H](CCCN=C(N)N)C(=O)NCC(N)=O)NC(=O)[C@H](CC(N)=O)NC1=O [Vasopressin, vasopressin]
urine osmolarity, TPIS vs TIDD ([1]; TPIS 0.22 mA/cm^2, 2 KHz, on/off 1/1, square, 40 min, 40 IU/ml pH 5.0): increases from the basal levels more rapidly and substantially
urine output, TPIS vs TIDD ([1]; TPIS, vasopressin solution pH 5.0): more effective in reducing urine output than TIDD
Skin Permeation Rate ([2]; TPIS 0.5 mA, 2 KHz, on/off 1/1, ionic strength 0.061, ± SD): 632.6 (±65.0) ng/cm^2 /hr
Skin Permeation Rate ([2]; TPIS 0.5 mA, 2 KHz, on/off 1/1, ionic strength 0.244, ± SD): 101.4 (±9.1) ng/cm^2 /hr
Skin Permeation Rate ([2]; passive diffusion, 30 hours): 1.32±0.38 ng/cm^2 /hr
Skin Permeation Rate ([3]; NO TPIS, 0.0 mA (passive diffusion), pH 5.0, X ± SD): 0.94±0.62 ng/cm^2 hr and 0.94 (±0.62) ng/cm^2 hr
Skin Permeation Lag Time ([3]; NO TPIS, 0.0 mA, pH 5.0, X ± SD): 9.12 (±1.06) hours
time after TPIS treatment for skin permeability to return to the rate before treatment ([3]; TPIS 0.3 mA, 16 KHz, 60 min, pH 5.0, ionic strength 0.064): less than 2 hours
Skin Permeation Rate [3, 4]: 757.3 (±53.2) ng/cm^2 /hr
duration of time lag [3, 4]: 0.40 (±0.06) hours
Skin Permeation Rate ([3]; TPIS 0.5 mA, 2 KHz, on/off 1/1, pH 7.4, ionic strength 0.122, ± SD): 244.6 (±26.3) ng/cm^2 /hr
Skin Permeation Rate ([3]; TPIS 0.5 mA, 2 KHz, on/off 1/1, pH 7.4, ionic strength 0.488, ± SD): 65.9 (±13.1) ng/cm^2 /hr
Skin Permeation Lag Time ([3]; With TPIS, activation phase, 0.5 mA, 2 KHz, on/off 1/1, 10 min per 40 min, pH 5.0): < 0.5 h
Skin Permeation Rate ([3]; With TPIS, activation phase, 0.5 mA, 2 KHz, on/off 1/1, 10 min per 40 min, pH 5.0, X ± SD): 116.2 (±10.7) ng/cm^2 hr
Skin Permeation Lag Time ([3]; With TPIS, activation phase, 1.0 mA, 2 KHz, on/off 1/1, 10 min per 40 min, pH 5.0): < 0.5 h
Skin Permeation Rate ([3]; With TPIS, activation phase, 1.0 mA, 2 KHz, on/off 1/1, 10 min per 40 min, pH 5.0, X ± SD): 178.0 (±25) ng/cm^2 hr
duration of time lag ([3]; passive diffusion, pH 5.0, ionic strength 0.064): 9 h
Skin Permeation Rate ([3]; passive diffusion, pH 5.0, ionic strength 0.064, 30 hours): 0.98±0.26 ng/cm^2 /hr
Skin Permeation Rate ([3]; post-activation phase (0.0 mA) after 0.5 mA TPIS, pH 5.0, X ± SD): 0.7 (±0.4) ng/cm^2 hr
Skin Permeation Rate ([3]; post-activation phase (0.0 mA) after 1.0 mA TPIS, pH 5.0, X ± SD): 5.3 (±0.5) ng/cm^2 hr
Enhancement factor ([3]; TPIS 0.5 mA, ionic strength 0.061): 472.8 (±59.0)
Enhancement factor ([3]; TPIS 0.5 mA, ionic strength 0.122): 185.3 (±19.9)
Enhancement factor ([3]; TPIS 0.5 mA, ionic strength 0.244): 76.8 (±6.9)
Enhancement factor ([3]; TPIS 0.5 mA, ionic strength 0.488): 49.9 (±18.0)
